Results on four compounds are retold here after patent publication US20100130469A1, “2, 6-NAPHTHRIDINE DERIVATIVES” (priority 2007, published 2010).

One experiment deals with T1, PKCδ (Homo sapiens, UniProt Q05655).
T1 construct: purchased Oxford Biomedical Research
In words: Protein Kinase Cδ assay. Type of experiment: biochemical. The conditions noted are these: ratio of IC50 values. As to the method:
(§1) The compounds of the invention are tested for their activity on different PKC isotypes according to the following method. Assay is performed in a white with clear bottom 384-well microtiterplate with non-binding surface. The reaction mixture (25 μl) contains 1.5 μM of a tridecapeptide acceptor substrate that mimics the pseudo substrate sequence of PKC a with the Ala→Ser replacement, 10 μM ^33P-ATP, 10 mM Mg(NO3)2, 0.2 mM CaCl2, PKC at a protein concentration varying from 25 to 400 ng/ml (depending on the isotype used), lipid vesicles (containing 30 mol % phosphatidylserine, 5 mol % DAG and 65 mol % phosphatidylcholine) at a final lipid concentration of 0.5 mM, in 20 mM Tris-HCl buffer pH 7.4+0.1% BSA. Incubation is performed for 60 min at room temperature.
Human recombinant PKC was obtained from Oxford Biomedical Research and is used under the assay conditions as described under Section A.1 above.

The test system of experiment [1] is Bone marrow cells from CBA mice. As to the kind of experiment: Bone Marrow Cell Proliferation (BM) assay. The conditions noted are these: mouse cells. The format is cell-based. As to the method: Bone marrow cells from CBA mice (2.5×10^4 cells per well in flat bottom tissue culture microtiter plates) are incubated in 100 μL RPMI medium containing 10% FCS, 100 U/mL penicillin, 100 μg/mL streptomycin (Gibco BRL, Baselm Switzerland), 50 μM 2-mercaptoethanol (Fluka, Buchs, Switzerland), WEHI-3 conditioned medium (7.5% v/v) and L929 conditioned medium (3% v/v) as a source of growth factors and serially diluted compounds. Seven three-fold dilution steps in duplicates per test compounds are performed. After four days of incubation 1 μCi ^3H-thymidine is added. Cells are harvested after an additional five-hour incubation period, and incorporated ^3H-thymidine is determined according to standard procedures. Conditioned media are prepared as follows. WEHI-3 cells (ATCC TIB68) and L929 cells (ATCC CCL 1) are grown in RPMI medium until confluence for 4 days and one week, respectively. Cells are harvested, resuspended in the same culture flasks in medium C containing 1% FCS (Schreier and Tess 1981) for WEHI-3 cells and RPMI medium for L929 cells and incubated for 2 days (WEHI-3) or one week (L929). The supernatant is collected, filtered through 0.2 μm and stored in aliquots at −80° C. Cultures without test compounds and without WEHI-3 and L929 supernatants are used as low control values. Low control values are substracted from all values. […]

A further experiment concerns the target T2, PKCε (Homo sapiens, UniProt Q02156).
T2 construct: purchased Oxford Biomedical Research
T2 sequence (Q02156 1-737): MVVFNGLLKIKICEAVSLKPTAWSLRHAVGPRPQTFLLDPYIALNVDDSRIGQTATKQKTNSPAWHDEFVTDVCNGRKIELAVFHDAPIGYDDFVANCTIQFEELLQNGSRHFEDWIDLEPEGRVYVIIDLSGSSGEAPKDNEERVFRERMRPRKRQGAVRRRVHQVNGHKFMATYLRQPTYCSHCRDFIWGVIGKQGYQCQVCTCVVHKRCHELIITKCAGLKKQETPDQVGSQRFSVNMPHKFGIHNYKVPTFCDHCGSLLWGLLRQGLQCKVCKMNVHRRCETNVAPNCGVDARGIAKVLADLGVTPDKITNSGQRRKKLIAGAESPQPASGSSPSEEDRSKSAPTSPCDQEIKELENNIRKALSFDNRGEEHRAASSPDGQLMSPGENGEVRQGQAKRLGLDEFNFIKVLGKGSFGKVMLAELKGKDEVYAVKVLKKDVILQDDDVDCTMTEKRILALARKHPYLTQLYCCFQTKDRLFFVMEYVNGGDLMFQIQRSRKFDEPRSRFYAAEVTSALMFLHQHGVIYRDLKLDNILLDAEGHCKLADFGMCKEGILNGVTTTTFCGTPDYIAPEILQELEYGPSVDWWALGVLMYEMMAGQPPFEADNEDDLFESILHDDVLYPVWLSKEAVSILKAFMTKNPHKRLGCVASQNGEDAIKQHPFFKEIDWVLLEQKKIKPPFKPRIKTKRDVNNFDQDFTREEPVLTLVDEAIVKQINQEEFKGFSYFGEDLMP
In words: Protein Kinase Cε assay. The format is biochemical. The conditions noted are these: ratio of IC50 values. As to the method: as §1
Human recombinant PKCη was obtained from Oxford Biomedical Research and is used under the assay conditions as described under Section A.1 above.

A further experiment has as its target T3, PKCβ1 (Homo sapiens, UniProt P05771).
T3 construct: purchased Oxford Biomedical Research
As to the kind of experiment: Protein Kinase Cβ1 assay. Type of experiment: biochemical. The conditions noted are these: ratio of IC50 values. As to the method:
as §1
Human recombinant PKCβ1 was obtained from Oxford Biomedical Research and is used under the assay conditions as described under Section A.1 above.

Another experiment concerns the target T4, PKCα (Homo sapiens, UniProt P17252).
T4 construct: purchased Oxford Biomedical Research
In words: Protein Kinase Cα assay. The format is biochemical. Conditions: ratio of IC50 values. As to the method:
as §1
Human recombinant PKCα was obtained from Oxford Biomedical Research and is used under the assay conditions as described under Section A.1 above.

The next experiment addresses PKCθ (Homo sapiens, UniProt Q04759). In words: Protein Kinase C θ assay. Type of experiment: biochemical. The conditions noted are these: ratio of IC50 values. As to the method: as §1
Human recombinant PKCθ is used under the assay conditions as described above.

The target of another experiment is T5, PKCη (Homo sapiens, UniProt P24723).
T5 construct: purchased PanVera
T5 sequence (P24723 whole entry): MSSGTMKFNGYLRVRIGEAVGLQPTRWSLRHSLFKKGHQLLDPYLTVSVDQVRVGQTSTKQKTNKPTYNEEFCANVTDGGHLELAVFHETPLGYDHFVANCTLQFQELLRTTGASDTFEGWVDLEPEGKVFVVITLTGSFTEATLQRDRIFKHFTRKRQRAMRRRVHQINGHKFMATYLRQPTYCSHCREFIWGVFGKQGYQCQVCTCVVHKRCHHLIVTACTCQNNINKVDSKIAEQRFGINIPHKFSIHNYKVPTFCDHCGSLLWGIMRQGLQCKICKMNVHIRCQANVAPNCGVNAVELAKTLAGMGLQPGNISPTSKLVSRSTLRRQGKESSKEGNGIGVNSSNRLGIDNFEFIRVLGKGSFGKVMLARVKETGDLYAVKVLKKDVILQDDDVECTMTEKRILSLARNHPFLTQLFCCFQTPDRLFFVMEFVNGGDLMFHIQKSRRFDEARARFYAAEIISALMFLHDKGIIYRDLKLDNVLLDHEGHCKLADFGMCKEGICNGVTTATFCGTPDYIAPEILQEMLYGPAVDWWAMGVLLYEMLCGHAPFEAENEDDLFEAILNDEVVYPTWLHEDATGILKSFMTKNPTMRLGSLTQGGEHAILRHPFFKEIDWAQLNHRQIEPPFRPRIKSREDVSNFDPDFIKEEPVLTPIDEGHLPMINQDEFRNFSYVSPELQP
As to the kind of experiment: Protein Kinase Cη assay. The format is biochemical. The conditions noted are these: human recombinant PKCη. As to the method: as §1
Human recombinant PKCη was obtained from PanVera and is used under the assay conditions as described under Section A.1 above.

PKCθ, sequence (Q04759 whole entry): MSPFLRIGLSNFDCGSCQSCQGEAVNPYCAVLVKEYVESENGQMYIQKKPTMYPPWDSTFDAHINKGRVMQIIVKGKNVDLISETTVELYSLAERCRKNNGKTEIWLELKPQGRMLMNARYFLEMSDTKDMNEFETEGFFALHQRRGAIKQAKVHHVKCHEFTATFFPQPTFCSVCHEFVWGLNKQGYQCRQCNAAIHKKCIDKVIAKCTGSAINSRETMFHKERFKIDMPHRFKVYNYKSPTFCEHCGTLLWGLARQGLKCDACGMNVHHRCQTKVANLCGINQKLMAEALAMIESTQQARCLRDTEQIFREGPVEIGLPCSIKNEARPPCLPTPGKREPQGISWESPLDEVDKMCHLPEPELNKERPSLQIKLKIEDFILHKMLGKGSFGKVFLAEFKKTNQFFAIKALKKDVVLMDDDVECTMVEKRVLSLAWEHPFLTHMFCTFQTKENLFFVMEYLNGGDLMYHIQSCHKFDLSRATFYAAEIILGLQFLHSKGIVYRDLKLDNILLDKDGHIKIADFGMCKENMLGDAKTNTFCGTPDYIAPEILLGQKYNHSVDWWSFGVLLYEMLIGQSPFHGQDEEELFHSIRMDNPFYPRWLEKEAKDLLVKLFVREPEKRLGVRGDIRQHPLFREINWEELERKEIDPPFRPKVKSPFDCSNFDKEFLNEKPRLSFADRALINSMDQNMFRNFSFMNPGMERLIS
T1 sequence (Q05655 whole entry): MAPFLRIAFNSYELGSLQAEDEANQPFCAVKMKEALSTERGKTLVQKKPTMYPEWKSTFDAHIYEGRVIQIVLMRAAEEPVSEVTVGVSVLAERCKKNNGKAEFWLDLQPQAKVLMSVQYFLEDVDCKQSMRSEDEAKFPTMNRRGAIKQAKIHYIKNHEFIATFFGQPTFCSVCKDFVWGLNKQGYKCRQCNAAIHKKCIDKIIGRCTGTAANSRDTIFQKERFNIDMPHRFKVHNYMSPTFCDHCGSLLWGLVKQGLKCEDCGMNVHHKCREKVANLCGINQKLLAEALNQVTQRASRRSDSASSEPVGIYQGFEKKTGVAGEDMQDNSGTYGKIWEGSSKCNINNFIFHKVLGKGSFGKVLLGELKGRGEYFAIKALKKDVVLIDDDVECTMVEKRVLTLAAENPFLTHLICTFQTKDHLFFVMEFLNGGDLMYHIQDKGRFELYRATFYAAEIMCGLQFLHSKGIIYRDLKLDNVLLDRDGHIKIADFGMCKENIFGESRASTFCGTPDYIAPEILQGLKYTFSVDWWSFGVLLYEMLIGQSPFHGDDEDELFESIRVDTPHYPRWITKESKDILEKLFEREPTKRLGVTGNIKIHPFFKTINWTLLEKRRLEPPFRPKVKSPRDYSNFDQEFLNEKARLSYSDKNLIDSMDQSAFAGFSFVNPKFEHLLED
T3 sequence (P05771 whole entry): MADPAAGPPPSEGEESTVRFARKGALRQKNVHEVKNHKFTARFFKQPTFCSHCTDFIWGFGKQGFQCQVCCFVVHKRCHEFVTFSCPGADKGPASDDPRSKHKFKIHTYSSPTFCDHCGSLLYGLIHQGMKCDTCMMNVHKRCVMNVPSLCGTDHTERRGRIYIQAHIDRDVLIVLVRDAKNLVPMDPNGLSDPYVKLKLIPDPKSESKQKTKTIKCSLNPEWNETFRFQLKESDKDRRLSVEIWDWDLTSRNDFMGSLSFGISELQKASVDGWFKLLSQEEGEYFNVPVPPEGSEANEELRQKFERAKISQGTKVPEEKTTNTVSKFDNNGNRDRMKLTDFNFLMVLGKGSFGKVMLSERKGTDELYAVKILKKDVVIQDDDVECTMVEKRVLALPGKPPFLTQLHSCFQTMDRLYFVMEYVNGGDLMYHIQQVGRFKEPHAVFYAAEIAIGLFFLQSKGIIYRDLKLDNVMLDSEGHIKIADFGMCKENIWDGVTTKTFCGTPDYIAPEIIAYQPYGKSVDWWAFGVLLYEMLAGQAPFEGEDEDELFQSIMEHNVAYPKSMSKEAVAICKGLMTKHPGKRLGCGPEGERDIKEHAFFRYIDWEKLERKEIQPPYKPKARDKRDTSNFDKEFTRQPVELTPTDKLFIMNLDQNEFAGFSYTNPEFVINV

For `C[C@@H]1CN(c2nc(-c3ccncc3)cc3cnccc23)[C@@H](C)CN1` (racemic) [Example 23, Rac-1-((2S,5R)-2,5-Dimethyl-piperazin-1-yl)-3-pyridin-4-yl-[2,6]naphthyridine], the “δ/η: ratio of the IC50 value for PKCδ to the IC50 value for PKCη” value on PKCδ is given as 15. Besides, the “BM/MLR: ratio of IC50 values of BM assay and MLR assay” value in experiment [1] is 24. Moreover, the “ε/η: ratio of the IC50 value for PKCε to the IC50 value for PKCη” value on PKCε stood at 1. Further, the “β/η: ratio of the IC50 value for PKC β to the IC50 value for PKCη” value on PKCβ1 is reported as 14. Moreover, on PKCα, the “α/η: ratio of the IC50 value for PKCα to the IC50 value for PKCη” value turned out to be 17. In addition, the “θ/η: ratio of the IC50 value for PKCθ to the IC50 value for PKCη” value on PKCθ was determined as 26.

Turning to `C[C@H](N)CNc1nc(-c2ccncc2)cc2cnccc12` [Example 71a, (S)—N*1*-(3-Pyridin-4-yl-[2,6]naphthyridin-1-yl)-propane-1,2-diamine], the “δ/η: ratio of the IC50 value for PKCδ to the IC50 value for PKCη” value at PKCδ amounted to 4. In experiment [1], the “BM/MLR: ratio of IC50 values of BM assay and MLR assay” value was found to be 30. Besides, on PKCε, the “ε/η: ratio of the IC50 value for PKCε to the IC50 value for PKCη” value is reported as 3. Moreover, on PKCβ1, the “β/η: ratio of the IC50 value for PKC β to the IC50 value for PKCη” value turned out to be 196. The “α/η: ratio of the IC50 value for PKCα to the IC50 value for PKCη” value at PKCα stood at 506. Further, the “θ/η: ratio of the IC50 value for PKCθ to the IC50 value for PKCη” value on PKCθ is 30.

`CC(C)(N)COc1nc(-c2ccncc2)cc2cnccc12` [Example 81, 1,1-Dimethyl-2-(3-pyridin-4-yl-[2,6]naphthyridin-1-yloxy)-ethylamine]: the half-maximal inhibitory concentration (IC50) – broadly, the concentration that inhibits the measured activity by half – at PKCη came to 162 nM.

On to `CC(C)(N)CNc1cc(-c2ccncc2)cc2cnccc12` [Example 83, 2-Methyl-N*1*-(7-pyridin-4-yl-isoquinolin-5-yl)-propane-1,2-diamine], for which, at PKCη, the IC50 was found to be 54 nM.
